Tests used:
[1] = target: T1, Avi-KRAS G12V (1-169) GppNHp/RAF1 RBD-3xFLAG (52-151) (Homo sapiens, UniProt P01116, G12V); assay: Raf1-KRAS G12V-GppNHP disruption HTRF assay (Biological Example 1); type: binding; conditions: KRAS G12V, GppNHp-loaded; class symbols
T1 construct: Avi-KRAS G12V (1-169)
How it was run: (§1)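 Percent activity versus DMSO (100%) was derived from HTRF signal after KRAS–RAF1 RBD protein mix was incubated 1 h at room temperature with shaking and detection reagents were added for a further 1 h.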

[2] = target: T2, Avi-KRAS G12D (1-169) GppNHp/RAF1 RBD-3xFLAG (52-151) (Homo sapiens, UniProt P01116, G12D); assay: Raf1-KRAS G12D-GppNHP disruption HTRF assay (Biological Example 1); type: binding; conditions: KRAS G12D, GppNHp-loaded; class symbols
T2 construct: Avi-KRAS G12D (1-169)
How it was run: as §1

[3] = target: T3, Avi-KRAS WT (1-169) GppNHp/RAF1 RBD-3xFLAG (52-151) (Homo sapiens, UniProt P01116); assay: Raf1-KRAS WT-GppNHP disruption HTRF assay (Biological Example 1); type: binding; conditions: KRAS WT, GppNHp-loaded; class symbols
T3 construct: Avi-KRAS WT (1-169)
How it was run: as §1

[4] = target: T4, Avi-KRAS G12R (1-169) GppNHp/RAF1 RBD-3xFLAG (52-151) (Homo sapiens, UniProt P01116, G12R); assay: Raf1-KRAS G12R-GppNHP disruption HTRF assay (Biological Example 1); type: binding; conditions: KRAS G12R, GppNHp-loaded; class symbols
T4 construct: Avi-KRAS G12R (1-169)
How it was run: as §1

GP2d cells (KRAS G12D) = assay: Cell-based pERK HTRF assay in GP2d cell (Biological Example 2); conditions: GP2d, GP2d (KRAS G12D) cells, pERK HTRF; class symbols
How it was run: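 60 min compound, 0.25% DMSO, 9-pt half-log curve from 1 μM or 100 nM; DMEM/10% FBS.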

SW620 cells (KRAS G12V) = assay: Cell-based pERK HTRF assay in SW620 cell (Biological Example 4); conditions: Homo sapiens, SW-620, SW620 (KRAS G12V) cells, pERK HTRF; class symbols
How it was run: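 Read-out: HTRF pERK signal (excitation 320 nm, emission 615 nm) from lysates of SW620 cells after 4 h compound exposure. Dose range was 9 points, half-log steps from 1 μM, in 0.25% DMSO; antibody incubation ran 4–24 h at room temperature.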

T1 sequence (P01116 1-169 isoform P01116-2 G12V): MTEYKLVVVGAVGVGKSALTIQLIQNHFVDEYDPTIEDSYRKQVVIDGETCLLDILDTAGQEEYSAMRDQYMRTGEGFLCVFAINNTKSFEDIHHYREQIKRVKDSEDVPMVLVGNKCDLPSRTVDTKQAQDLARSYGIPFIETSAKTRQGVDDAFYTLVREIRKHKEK
T3 sequence (P01116 1-169 isoform P01116-2): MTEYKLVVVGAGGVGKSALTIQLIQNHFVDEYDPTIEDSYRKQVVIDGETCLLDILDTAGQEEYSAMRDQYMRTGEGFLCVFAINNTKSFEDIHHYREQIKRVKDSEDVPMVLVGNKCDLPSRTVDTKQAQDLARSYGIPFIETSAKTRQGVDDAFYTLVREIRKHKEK
T4 sequence (P01116 1-169 isoform P01116-2 G12R): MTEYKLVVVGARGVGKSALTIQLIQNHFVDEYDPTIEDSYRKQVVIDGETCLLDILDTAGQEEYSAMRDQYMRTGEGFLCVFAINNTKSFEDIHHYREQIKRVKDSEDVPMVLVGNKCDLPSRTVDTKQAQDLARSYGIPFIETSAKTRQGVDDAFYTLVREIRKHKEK
T2 sequence (P01116 1-169 isoform P01116-2 G12D): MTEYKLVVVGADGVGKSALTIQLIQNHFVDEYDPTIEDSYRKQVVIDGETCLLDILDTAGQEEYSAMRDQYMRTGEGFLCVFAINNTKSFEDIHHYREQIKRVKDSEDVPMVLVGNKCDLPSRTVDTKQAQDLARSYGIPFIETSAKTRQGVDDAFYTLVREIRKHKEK

Structure (SMILES) | IC50 [1] [nM] | IC50 [2] [nM] | IC50 [3] [nM] | IC50 [4] [nM] | IC50 (GP2d cells (KRAS G12D)) [nM] | IC50 (SW620 cells (KRAS G12V)) [nM]
CCN(c1nc(OC[C@@]23CCCN2C[C@H](F)C3)nc2c(F)c(-c3ccc(F)c4sc(N)c(C#N)c34)c(C(F)(F)F)cc12)[C@H]1CCN(C(=O)N2CC(C#N)C2)C1 (atropisomer, axis not shown) [Compound 778] | < 100 | < 100 | < 100 | < 100 | < 100 | < 100
N#Cc1c(N)sc2c(F)ccc(-c3c(C(F)(F)F)cc4c(N(C5CC5)[C@H]5CCN(C(=O)[C@@H]6CC6(F)F)C5)nc(OC[C@@]56CCCN5C[C@H](F)C6)nc4c3F)c12 (atropisomer, axis not shown) [Compound 779] | 100 to 1000 | < 100 | 100 to 1000 | 100 to 1000 | < 100 | < 100
CCN(c1nc(OC[C@@]23CCCN2C[C@H](F)C3)nc2c(F)c(-c3ccc(F)c4sc(N)c(C#N)c34)c(C(F)(F)F)cc12)[C@H]1CCN(C(=O)N2CC(F)C2)[C@@H]1C (atropisomer, axis not shown) [Compound 780] | < 100 | < 100 | < 100 | < 100 | < 100 | < 100
CCN(c1nc(OC[C@@]23CCCN2C[C@H](F)C3)nc2c(F)c(-c3ccc(F)c4sc(N)c(C#N)c34)c(C(F)(F)F)cc12)[C@H]1CCN(C(=O)[C@H](C)OC)[C@@H]1C (atropisomer, axis not shown) [Compound 781] | 100 to 1000 | < 100 | < 100 | < 100 | < 100 | < 100
CCN(c1nc(OC[C@@]23CCCN2C[C@H](F)C3)nc2c(F)c(-c3ccc(F)c4sc(N)c(C#N)c34)c(C(F)(F)F)cc12)[C@H]1C[C@@H](C)N(C(=O)N2CC(F)C2)C1 (atropisomer, axis not shown) [Compound 782] | 100 to 1000 | 100 to 1000 | 100 to 1000 | 100 to 1000 | < 100 | < 100
CCN(c1nc(OC[C@@]23CCCN2C[C@H](F)C3)nc2c(F)c(-c3ccc(F)c4sc(N)c(C#N)c34)c(C(F)(F)F)cc12)[C@H]1C[C@@H](C)N(C(=O)c2ccon2)C1 (atropisomer, axis not shown) [Compound 783] | 100 to 1000 | 100 to 1000 | 100 to 1000 | 100 to 1000 | < 100 | < 100
CCN(c1nc(OC[C@@]23CCCN2C[C@H](F)C3)nc2c(F)c(-c3ccc(F)c4sc(N)c(C#N)c34)c(C(F)(F)F)cc12)[C@H]1C[C@H]2CN(C(C)C)C(=O)N2C1 (atropisomer, axis not shown) [Compound 784] | 100 to 1000 | < 100 | < 100 | < 100 | < 100 | < 100
CN(c1nc(OC[C@@]23CCCN2C[C@H](F)C3)nc2c(F)c(-c3ccc(F)c4sc(N)c(C#N)c34)c(C(F)(F)F)cc12)[C@H]1CCN(C(=O)[C@@H]2CC2(F)F)C1 (atropisomer, axis not shown) [Compound 785] | 100 to 1000 | < 100 | 100 to 1000 | 100 to 1000 | < 100 | < 100
CC(C)C(=O)N1CC[C@H](N(C)c2nc(OC[C@@]34CCCN3C[C@H](F)C4)nc3c(F)c(-c4ccc(F)c5sc(N)c(C#N)c45)c(C(F)(F)F)cc23)C1 (atropisomer, axis not shown) [Compound 786] | 100 to 1000 | < 100 | 100 to 1000 | < 100 | < 100 | < 100
CCN(c1nc(OC[C@@]23CCCN2C[C@H](F)C3)nc2c(F)c(-c3ccc(F)c4sc(N)c(C#N)c34)c(C(F)(F)F)cc12)[C@@H]1CCN(C(=O)[C@H]2CCO2)[C@@H]1C (atropisomer, axis not shown) [Compound 788] | < 100 | < 100 | < 100 | < 100 | < 100 | < 100
